These results are taken from patent US9688695B2, “Imidazothiadiazole and imidazopyrazine derivatives as protease activated receptor 4 (PAR4) inhibitors for treating platelet aggregation” (BRISTOL-MYERS SQUIBB COMPANY, priority 2012, dated 2017).

Usually IC50 stands for the concentration that gives 50% inhibition. What is called EC50 is the concentration giving half of the maximal effect.

Test [1] concerns the target T1, PAR4 (Homo sapiens (Human), UniProt Q96RI0). Put plainly: Gamma thrombin induced platelet aggregation assay (PRP assay). The format is cell-based. Conditions: human platelet rich plasma, 96-well microplate. As to the method:
Platelet aggregation can be monitored in a 96-well microplate aggregation assay format or using standard platelet aggregometer.
The platelet rich plasma was isolated by centrifugation at 170 g for 14 minutes.
The ability of the compounds of the current invention to inhibit platelet aggregation induced by gamma-thrombin was tested in a 96-well microplate aggregation assay format. Briefly, PRP or washed platelet suspension (100 μl) was pre-incubated for 5 minutes at room temperature with varying concentrations of compounds. Aggregation was initiated by ˜10-50 nM gamma thrombin (Haematologic Technologies, Essex Junction, Vt.), which was titrated daily to achieve 80% platelet aggregation. Refludan at 1 U/mL (Berlex, Montville, N.J.) was added to the gamma thrombin sample to prevent PAR1 activation induced by residual alpha-thrombin contamination. The plate was then placed into a 37° C. Molecular Devices (Sunnyvale, Calif.) SPECTRAMAX® Plus Plate Reader. […] The plate also included an untreated control sample which served as ODmax, while buffer containing no platelets was the ODmin. Platelet aggregation was determined by subtracting the ODmax from the ODmin for the 100% aggregation value. In experimental samples, the observed transmission was subtracted from the minimum value and then compared to the 100% aggregation value to determine the percentage aggregation. IC50 values are determined using Excel Fit software.

In test [2] the target is T1, PAR4. As to the kind of experiment: FLIPR assay in PAR4-expressing HEK293 cells (PAR4 antagonist activity, calcium mobilization). It is filed as cell-based. Conditions: H-Ala-Phe(4-F)-Pro-Gly-Trp-Leu-Val-Lys-Asn-Gly-NH2-induced calcium mobilization. The essentials:
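HEK293 EBNA cells stably expressing human PAR4 (also endogenous PAR1) preincubated 30 min at room temperature with compound in HBSS/10 mM HEPES, 0.67% DMSO final. PAR4 agonist peptide then added and intracellular calcium mobilization monitored by fluorescence.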
In general terms: Calcium flux is commonly read through the fluorescence of an indicator in the cells.

T1 sequence (Q96RI0 18-385): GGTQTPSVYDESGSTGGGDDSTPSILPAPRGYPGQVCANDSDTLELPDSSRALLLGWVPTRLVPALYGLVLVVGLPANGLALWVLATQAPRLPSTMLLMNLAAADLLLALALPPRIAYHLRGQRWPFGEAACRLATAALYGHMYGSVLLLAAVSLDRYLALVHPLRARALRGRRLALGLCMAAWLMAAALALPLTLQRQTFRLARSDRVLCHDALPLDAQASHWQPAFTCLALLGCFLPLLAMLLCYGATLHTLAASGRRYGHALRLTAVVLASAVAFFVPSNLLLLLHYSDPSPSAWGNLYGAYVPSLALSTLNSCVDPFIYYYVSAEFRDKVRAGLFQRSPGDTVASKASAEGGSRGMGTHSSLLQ

Consider `CCC(F)(CC)c1nc(COc2cc(OC)cc3oc(-c4cn5nc(OC)sc5n4)cc23)cs1` [Example 141], for which the IC50 against PAR4 [1] was 24 nM. At PAR4 [2], the EC50 turned out to be 0.47 nM.

Take `COc1cc(OCc2csc(N3CCN(C)C(C)C3)n2)c2cc(-c3cn4nc(C)ccc4n3)oc2c1` (centres unmarked) [Example 276]: the IC50 against PAR4 [1] is over 3000 nM. The half-maximal effective concentration (EC50) at PAR4 [2] is 24 nM.

On PAR4 [1], `COc1cc(OCc2csc(-c3ccc(Cl)nc3)n2)c2cc(-c3cn4nc(OC)sc4n3)oc2c1` [Example 80] displayed an IC50 of 0.94 nM. Moreover, the EC50 on PAR4 [2] is 0.74 nM.

In turn, `COc1cc(OCc2csc(NCCCN3CCCC3=O)n2)c2cc(-c3cn4nc(C)ccc4n3)oc2c1` [Example 254] displayed an IC50 against PAR4 [1] of over 3000 nM. Further, the EC50 on PAR4 [2] came to 19 nM.

The compound `COc1cc(OCc2csc(Br)n2)c2cc(-c3cn4nc(C)ccc4n3)oc2c1` [Example 205, 2-Bromo-4-(((6-methoxy-2-(6-methylimidazo[1,2-b]pyridazin-2-yl)benzofuran-4-yl)oxy)methyl)thiazole] had an IC50 on PAR4 [1] of 2380 nM. For the same compound, the EC50 on PAR4 [2] amounted to 3.5 nM.

`COc1cc(OCc2csc(-c3ccc(C(=O)NCC(F)(F)F)cc3)n2)c2cc(-c3cn4nc(OC)sc4n3)oc2c1` [Example 305] gave an IC50 on PAR4 [1] of 2 nM. For the same compound, at PAR4 [2], the EC50 was found to be 1 nM.

In turn, `COc1cc(OCc2csc(-c3ccccc3)n2)c2cc(-c3cn4nc([C@H](C)F)sc4n3)oc2c1` [Example 192, (S)-2-(1-Fluoroethyl)-6-(6-methoxy-4-((2-phenylthiazol-4-yl)methoxy)benzofuran-2-yl)imidazo[2,1-b][1,3,4]thiadiazole] gave an IC50 at PAR4 [1] of 28 nM. For the same compound, the EC50 at PAR4 [2] was found to be 1.9 nM.

Consider `COc1cc(OCc2csc(NCCN3CCOCC3)n2)c2cc(-c3cn4nc(C)ccc4n3)oc2c1` [Example 244], for which the half-maximal inhibitory concentration (IC50) against PAR4 [1] is over 3000 nM. Moreover, the EC50 on PAR4 [2] came out at 909 nM.

On PAR4 [1], `COc1cc(OCc2csc(Nc3cc(F)ccc3F)n2)c2cc(-c3cn4nc(C)ccc4n3)oc2c1` [Example 265] yielded an IC50 of over 3000 nM. The EC50 at PAR4 [2] was found to be 48 nM.

In turn, `COc1cc(OCc2csc(Nc3ccc4[nH]ccc4c3)n2)c2cc(-c3cn4nc(C)ccc4n3)oc2c1` [Example 261] yielded an IC50 on PAR4 [1] of over 3000 nM. Besides, at PAR4 [2], the EC50 was 39 nM.

`COc1cc(OCc2csc(-c3ccc(F)nc3)n2)c2cc(-c3cn4nc(OC)sc4n3)oc2c1` [Example 73] came in with an IC50 against PAR4 [1] of 1.9 nM. Further, at PAR4 [2], the EC50 turned out to be 0.35 nM.

At PAR4 [1], `COc1cc(OCc2csc(N(C)CCO)n2)c2cc(-c3cn4nc(C)ccc4n3)oc2c1` [Example 249] showed a 50% inhibitory concentration (IC50) of over 3000 nM. Further, the EC50 on PAR4 [2] came to 15 nM.

Regarding `COc1cc(OCc2nc(N)sc2C)c2cc(-c3cn4nc(OC)sc4n3)oc2c1` [Example 87, 4-(((6-Methoxy-2-(2-methoxyimidazo[2,1-b][1,3,4]thiadiazol-6-yl)benzofuran-4-yl)oxy)methyl)-5-methylthiazol-2-amine], the IC50 on PAR4 [1] is over 3000 nM. The EC50 on PAR4 [2] stood at 24 nM.

Compound `COc1cc(OCc2csc(NCc3cccnc3)n2)c2cc(-c3cn4nc(C)ccc4n3)oc2c1` [Example 245] showed an IC50 on PAR4 [1] of 3130 nM. In addition, the EC50 at PAR4 [2] was determined as 5.5 nM.

The compound `CCc1sc(-c2ccc(C(=O)N(C)C)cc2)nc1COc1cc(OC)cc2oc(-c3cn4nc(OC)sc4n3)cc12` [Example 44, 4-(5-Ethyl-4-(((6-methoxy-2-(2-methoxyimidazo[2,1-b][1,3,4]thiadiazol-6-yl)benzofuran-4-yl)oxy)methyl)thiazol-2-yl)-N,N-dimethylbenzamide] yielded an IC50 at PAR4 [1] of 2 nM. The EC50 on PAR4 [2] was 0.9 nM.

Regarding `COCCN(C)C(=O)c1ccc(-c2nc(COc3cc(OC)cc4oc(-c5cn6nc(OC)sc6n5)cc34)cs2)cc1` [Example 39], it took 2.1 nM to reach half-maximal inhibition against PAR4 [1] (IC50). For the same compound, the EC50 at PAR4 [2] came to 0.46 nM.

Consider `COc1cc(OCc2csc(-c3ccccc3)n2)c2nc(-c3cn4nc(SC)sc4n3)oc2c1` [Example 201, 6-Methoxy-2-(2-(methylthio)imidazo[2,1-b][1,3,4]thiadiazol-6-yl)-4-((2-phenylthiazol-4-yl)methoxy)benzo[d]oxazole], for which the IC50 on PAR4 [1] amounted to 156 nM.

On to `COc1cc(OCc2csc(N3C[C@@H](C)O[C@@H](C)C3)n2)c2cc(-c3cn4nc(OC)sc4n3)oc2c1` [Example 51], for which the EC50 on PAR4 [2] is 0.26 nM.

Regarding `COc1cc(OCc2csc(-c3ccc(C(=O)N4CC(OC)C4)cc3)n2)c2cc(-c3cn4nc(OC)sc4n3)oc2c1` [Example 294], the EC50 at PAR4 [2] came to 0.4 nM.

As for `COc1cc(OCc2nc(N3CCOCC3)sc2C(F)(F)F)c2cc(-c3cn4nc(C)ccc4n3)oc2c1` [Example 220], on PAR4 [2], the EC50 was found to be 0.72 nM.

On to `COc1cc(OCc2csc(C3CCCCC3)n2)c2cc(-c3cn4nc(OC)sc4n3)oc2c1` [Example 20], for which the EC50 on PAR4 [2] was 1.1 nM.

As for `COc1cc(OCc2csc(-c3ccc(C(=O)N(C)C)cc3)n2)c2cc(-c3cn4nc([C@H](C)F)sc4n3)oc2c1` [Example 194, (S)-4-(4-(((2-(2-(1-Fluoroethyl)imidazo[2,1-b][1,3,4]thiadiazol-6-yl)-6-methoxybenzofuran-4-yl)oxy)methyl)thiazol-2-yl)-N,N-dimethylbenzamide], the EC50 at PAR4 [2] worked out at 1.6 nM.

`COc1cc(OCc2csc(C3(O)CCN(C(=O)c4ccccc4)CC3)n2)c2cc(-c3cn4nc(OC)sc4n3)oc2c1` [Example 130, (4-Hydroxy-4-(4-(((6-methoxy-2-(2-methoxyimidazo[2,1-b][1,3,4]thiadiazol-6-yl)benzofuran-4-yl)oxy)methyl)thiazol-2-yl)piperidin-1-yl)(phenyl)methanone]: the EC50 at PAR4 [2] was 0.4 nM.

Turning to `COc1cc(OCc2csc(-c3ccncc3)n2)c2cc(-c3cn4nc(C)ccc4n3)oc2c1` [Example 211, 4-(((6-Methoxy-2-(6-methylimidazo[1,2-b]pyridazin-2-yl)benzofuran-4-yl)oxy)methyl)-2-(pyridin-4-yl)thiazole], the EC50 at PAR4 [2] was found to be 0.72 nM.

Consider `COc1cc(OCc2csc(C3(O)CCC(=O)CC3)n2)c2cc(-c3cn4nc(OC)sc4n3)oc2c1` [Example 128, 4-Hydroxy-4-(4-(((6-methoxy-2-(2-methoxyimidazo[2,1-b][1,3,4]thiadiazol-6-yl)benzofuran-4-yl)oxy)methyl)thiazol-2-yl)cyclohexan-one], for which the EC50 on PAR4 [2] came to 0.35 nM.

With `COCCN(CCOC)c1nc(COc2cc(OC)cc3oc(-c4cn5nc(C)ccc5n4)cc23)cs1` [Example 246], the EC50 at PAR4 [2] is 1.4 nM.

With `COc1cc(OCc2nc(C3(F)CCOCC3)sc2C)c2cc(-c3cn4nc(OC)sc4n3)oc2c1` [Example 125, 6-(4-((2-(4-Fluorotetrahydro-2H-pyran-4-yl)-5-methylthiazol-4-yl)methoxy)-6-methoxybenzofuran-2-yl)-2-methoxyimidazo[2,1-b][1,3,4]-thiadiazole], inhibition on PAR4 [1] was half-maximal at 5.7 nM (IC50).

Regarding `COc1cc(OCc2csc(-c3ccccc3)n2)c2cc(-c3cn4nc(C)ccc4n3)oc2c1` [Example 203, 4-(((6-Methoxy-2-(6-methylimidazo[1,2-b]pyridazin-2-yl)benzofuran-4-yl)oxy)methyl)-2-phenylthiazole], at PAR4 [2], the EC50 was determined as 0.76 nM.

As to `COc1cc(OCc2csc(CCC(F)(F)F)n2)c2cc(-c3cn4nc(OC)sc4n3)oc2c1` [Example 58], on PAR4 [2], the EC50 stood at 0.33 nM.

On to `COc1cc(OCc2nc(-c3ccnc(F)c3)sc2C(C)C)c2cc(-c3cn4nc(OC)sc4n3)oc2c1` [Example 43, 6-(4-((2-(2-Fluoropyridin-4-yl)-5-isopropylthiazol-4-yl)methoxy)-6-methoxybenzofuran-2-yl)-2-methoxyimidazo[2,1-b][1,3,4]thiadiazole], for which the EC50 at PAR4 [2] was determined as 0.34 nM.

For `COc1cc(OCc2nc(N3CCOCC3)sc2C=O)c2cc(-c3cn4nc(OC)sc4n3)oc2c1` [Example 88, 4-(((6-Methoxy-2-(2-methoxyimidazo[2,1-b][1,3,4]thiadiazol-6-yl)benzofuran-4-yl)oxy)methyl)-2-morpholinothiazole-5-carbaldehyde], on PAR4 [2], the EC50 amounted to 2.9 nM.

With `COc1cc(OCc2nc(-c3ccc(C(=O)O)cc3)sc2C)c2cc(-c3cn4nc(OC)sc4n3)oc2c1` [Example 46, 4-(4-(((6-Methoxy-2-(2-methoxyimidazo[2,1-b][1,3,4]thiadiazol-6-yl)benzofuran-4-yl)oxy)methyl)-5-methylthiazol-2-yl)benzoic acid], the EC50 on PAR4 [2] was 2.4 nM.

Regarding `COc1cc(OCc2csc(-c3ccc(CO)cc3)n2)c2cc(-c3cn4nc(OC)sc4n3)oc2c1` [Example 69], the concentration giving a half-maximal response (EC50) on PAR4 [2] amounted to 0.23 nM.

For the compound `COc1cc(OCc2csc(-c3ccc(C(=O)N(C)C)cc3)n2)c2cc(-c3cn4nc(C)ccc4n3)oc2c1` [Example 223], the EC50 at PAR4 [2] was determined as 0.62 nM.

`COc1cc(OCc2csc(C(C)(O)C3CCCCC3)n2)c2cc(-c3cn4nc(OC)sc4n3)oc2c1` (centres unmarked) [Example 142]: on PAR4 [2], the EC50 is 0.31 nM.

Take `COc1cc(OCc2csc(C3CCN(S(=O)(=O)C(C)C)CC3)n2)c2cc(-c3cn4nc(OC)sc4n3)oc2c1` [Example 111, 6-(4-((2-(1-(Isopropylsulfonyl)piperidin-4-yl)thiazol-4-yl)methoxy)-6-methoxybenzofuran-2-yl)-2-methoxyimidazo[2,1-b][1,3,4]thiadiazole]: the EC50 on PAR4 [2] came out at 0.86 nM.

`CCc1sc(N2CCOCC2)nc1COc1cc(OC)cc2oc(-c3cn4nc(C)ccc4n3)cc12` [Example 238]: at PAR4 [2], the EC50 was 0.73 nM.
